Results reported in patent US10159265B2, “Feed composition for reducing ruminant methanogenesis” (priority 2012, dated 2018).
Marks after values point to notes of the source that are not given here.

Columns and labels:
[1] = tested on: Megasphaera elsdenii; assay: qPCR relative quantification of Megasphaera elsdenii; format: cell-based; details: 12 hours of incubation
Protocol: (§1) Rumen cannulated calves which received a mixed ration mainly composed of concentrate (90:10) were used as rumen fluid donor; feed composition is presented in Table 1. The inoculum was collected and filtered through two-layer surgical gauze and kept in thermo pots. Flavonoids (Table 2) plus 600 mg of concentrate (Table 1) and 60 mg of barley straw as the substrate were dosed by triplicate in preheated bottles (39° C.) and maintained under anaerobic conditions. Flavonoids isonaringin, neoeritrocin, poncirin were purchased from INDOFINE Chemical Company, Inc (USA). 10 ml of rumen fluid and 40 ml of incubation medium were added to the bottles (McDougall, El (1948) Studies on ruminant saliva. 1. The composition and output of sheep's saliva. Biochem J. 43(1) 99-109). Once the bottles were filled and the anaerobic condition was applied, the bottles were sealed and the incubation process was started in a hot water bath. Pressure readings were made at 2, 4, 6, 8, 12, 24, 36 and 48 hours. Each sample was incubated in triplicate in two sets or batches.
(§2) After 12 hours of incubation, one bottle (replicate) from each treatment was opened, pH was recorded and the bottle was sampled for volatile fatty acids (Jouany, J. P., 1982 Science des Aliments 2, 131-144), lactate (Taylor, K. A. C. C., 1996. Appl. Biochem. Biotechnol. Enzym. Eng. Biotechnol. 56, 49-58) and ammonia (Chaney, A. L., Marbach, E. P., 1962. Clin. Chem. 8, 130-132) analyses.
(§3) The environmental DNA was extracted using the technique proposed by Yu and Morrison (2004). Quantification of Streptococcus bovis, Megasphaera elsdenii and Selenomonas ruminantium DNA was done by qPCR using specific primers (Tajima, K. et al. 2001. Appl. Environ. Microb. 67, 2766-2774; Ouwerkerk, D., et al. 2002. J. Appl. Microbiol. 92, 753-758). Results were statistically analyzed using the PROC MIXED procedure of SAS statistical package (SAS, 2000, User's guide: Statistics, version 8 editions inst., Inc., Cary, N.C.). The least significant difference was used to compare the means. Differences between means in which P<0.05 were accepted as significant.

[2] = tested on: "in vitro" ruminal fluid cultures; assay: Volatile fatty acid concentration and molar proportions in "in vitro" ruminal fluid cultures; format: cell-based, calves
Excerpt: (§4) Two trials following an identical experimental protocol were designed to study the effect of different pure flavonoids on rumen fermentation using a simulatory “in vitro” system based on the experimental protocol described by Theodorou M K et al. (1994) Animal Feed Science and Technology, 48 (3), p. 185-197; Mauricio, R. M., et al. (1999) Animal Feed Science and Technology 79, 321-330.
as §1
[…] P., 1982 Science des Aliments 2, 131-144), lactate (Taylor, K. A. C. C., 1996. Appl. Biochem. Biotechnol. Enzym. Eng. Biotechnol. 56, 49-58) and ammonia (Chaney, A. L., Marbach, E. P., 1962. Clin. Chem. 8, 130-132) analyses.

[3] = tested on: "in vitro" ruminal fluid culture; assay: Lactate concentration in "in vitro" ruminal fluid culture; format: cell-based, calves; details: 12 hours of incubation
Excerpt: as §4, §1, §2

[4] = tested on: "in vitro" ruminal fluid cultures; assay: Ammonia (N-NH3) concentration in "in vitro" ruminal fluid cultures; format: cell-based, calves
Excerpt: as §4, §1, §2

[5] = tested on: "in vitro" rumen fluid culture; assay: Biogas production in "in vitro" rumen fluid culture (pressure meter); format: cell-based, calves; set-up: Average biogas production / Cumulative biogas production / Biogas production: unit not given here; details: Exp 1; for Average biogas production: average over doses and incubation times
Protocol: as §4
Gas production was determined from a semi-automatic pressure meter, the relationship between pressure levels and the produced gas volume was previously calculated.
as §1, with “Pressure readings were made at 2, 4, 6, 8, 12, 24, 36 and 48 hours.” left out

[6] = tested on: methanogenic (archea) populations; assay: Methane production in "in vitro" rumen fluid culture; format: cell-based, calves; set-up: Average methane production / Accumulated methane production / Methane production / Cumulative methane production: unit not given here; details: Exp 1
Excerpt: as §4
as §1, with “Pressure readings were made at 2, 4, 6, 8, 12, 24, 36 and 48 hours.” left out
The effects of flavonoids substances on fermentation activity of certain archea populations which are theoretically responsible for the methane production were analyzed.
The experimental design allows determining whether the effect of flavonoids on methane reduction was derived from a general reduction in microbial activity and biogas production or contrarily flavonoid affects specifically on methanogenic (archea) populations. The presence of flavonoids in the culture medium reduced methane contribution in the total biogas production (P<0.05) although, again, the aforementioned impact was heterogeneous.

[7] = tested on: Selenomonas ruminantium; assay: qPCR relative quantification of Selenomonas ruminantium; format: cell-based; details: 12 hours of incubation
Protocol: as §1, §2, §3

[8] = tested on: Streptococcus bovis; assay: qPCR relative quantification of Streptococcus bovis; format: cell-based; details: 12 hours of incubation
Protocol: as §1, §2, §3

[9] = tested on: ruminal bacteria; assay: Bacterial DNA concentration by qPCR; format: cell-based, calves; details: 12 hours of incubation
Protocol: as §1, §2, §3

[10] = tested on: "in vitro" ruminal fluid cultures; assay: Ammonia (N-NH3) concentration in "in vitro" ruminal fluid cultures; format: cell-based, calves; details: 72 h
[11] = average over doses and incubation times

Q: With `COc1ccc([C@@H]2CC(=O)c3c(O)cc(O[C@@H]4O[C@H](CO[C@@H]5O[C@@H](C)[C@H](O)[C@@H](O)[C@H]5O)[C@@H](O)[C@H](O)[C@H]4O)cc3O2)cc1O` [Hesperidin, hesperidin] as the molecule, how does the “Relative Quantification 2^(ΔΔCt) M. elsdenii” value [1] read?
A: 1.18 ^b

Q: What about the “% Acetate, molar ratio” value ([2]; 0 h) of the same molecule?
A: 62.51 mol/100 mol

Q: And the “% Butyrate, molar ratio” value ([2]; 0 h)?
A: 9.07 mol/100 mol

Q: What about the “% Propionate, molar ratio” value ([2]; 0 h) of the same molecule?
A: 20.03 mol/100 mol

Q: What about the “A/P rate (acetate/propionate)” value ([2]; 0 h) of the same molecule?
A: 3.12

Q: What about the VFA concentration ([2]; 0 h (initial constant value)) of the same molecule?
A: 13.78 mmol/L

Q: What about the “% Acetate, molar ratio” value ([2]; 12 h) of the same molecule?
A: 56.88 mol/100 mol

Q: And the “% Butyrate, molar ratio” value ([2]; 12 h)?
A: 10.41 mol/100 mol

Q: What about the “% Propionate, molar ratio” value ([2]; 12 h) of the same molecule?
A: 27.22 mol/100 mol

Q: And the “A/P rate (acetate/propionate)” value ([2]; 12 h)?
A: 2.09

Q: And the VFA concentration ([2]; 12 h)?
A: 38.25 mmol/L

Q: What about the “% Acetate, molar ratio” value ([2]; 72 h) of the same molecule?
A: 56.04 mol/100 mol

Q: And the “% Butyrate, molar ratio” value ([2]; 72 h)?
A: 10.78 mol/100 mol

Q: And the “% Propionate, molar ratio” value ([2]; 72 h)?
A: 25.80 mol/100 mol

Q: And the “A/P rate (acetate/propionate)” value ([2]; 72 h)?
A: 2.17

Q: What about the VFA concentration ([2]; 72 h) of the same molecule?
A: 53.70 mmol/L

Q: And the “% Acetate, molar ratio, average (μ)” value ([2]; average over incubation times)?
A: 58.48 mol/100 mol

Q: And the “% Butyrate, molar ratio, average (μ)” value ([2]; average over incubation times)?
A: 10.08 ^ab mol/100 mol

Q: And the “% Propionate, molar ratio, average (M)” value ([2]; average over incubation times)?
A: 24.35 ^ab mol/100 mol

Q: And the “VFA concentration, average (μ)” value ([2]; average over incubation times)?
A: 35.25 mmol/L

Q: What about the Lactate [3] of the same molecule?
A: 44.3 mg/L

Q: What about the Lactate ([3]; listed as hesperidin) of the same molecule?
A: tended to moderate the recorded increase

Q: And the N-NH3 concentration ([4]; 0 h (initial constant value))?
A: 149.99 mg/L

Q: And the N-NH3 concentration ([4]; 12 h)?
A: 187.36 mg/L

Q: What about the “N-NH3 concentration, average (M)” value ([4]; average over incubation times) of the same molecule?
A: 220.15 mg/L

Q: And the Cumulative biogas production ([5]; 12 h incubation)?
A: 187.19

Q: And the Cumulative biogas production ([5]; 24 h incubation)?
A: 227.31

Q: And the Cumulative biogas production ([5]; 48 h incubation)?
A: 261.28

Q: And the Cumulative biogas production ([5]; 72 h incubation)?
A: 282.84

Q: And the Average biogas production [5]?
A: 239.65^cd

Q: What about the Average biogas production ([5]; listed as hesperidin) of the same molecule?
A: 239.6

Q: And the Biogas production ([5]; dose 1, 0.2 g/kg DM)?
A: 239.91

Q: What about the Biogas production ([5]; dose 2, 0.5 g/kg DM) of the same molecule?
A: 239.4

Q: What about the Accumulated methane production ([6]; 12 h) of the same molecule?
A: 21.08

Q: And the “Proportion of methane in the produced biogas” value (“Proportion of methane” below) ([6]; 12 h)?
A: 11.26

Q: What about the Accumulated methane production ([6]; 24 h) of the same molecule?
A: 26.03

Q: What about the “Proportion of methane” value ([6]; 24 h) of the same molecule?
A: 12.40

Q: And the Accumulated methane production ([6]; 48 h)?
A: 31.54

Q: What about the “Proportion of methane” value ([6]; 48 h) of the same molecule?
A: 16.43

Q: And the Accumulated methane production ([6]; 72 h)?
A: 35.04

Q: What about the “Proportion of methane” value ([6]; 72 h) of the same molecule?
A: 16.55

Q: And the Average methane production [6, 11]?
A: 28.42^cd

Q: What about the “Proportion of methane” value [6, 11] of the same molecule?
A: 14.16^cd

Q: And the Average methane production ([6]; average over doses and incubation times, listed as hesperidin)?
A: not modified

Q: And the Methane production ([6]; dose 1, 0.2 g/kg DM)?
A: 28.11

Q: And the “Proportion of methane” value ([6]; dose 1, 0.2 g/kg DM)?
A: 14.05

Q: What about the Methane production ([6]; dose 2, 0.5 g/kg DM) of the same molecule?
A: 28.74

Q: And the “Proportion of methane” value ([6]; dose 2, 0.5 g/kg DM)?
A: 14.27

Q: And the “Relative Quantification 2^(ΔΔCt) S. ruminantium” value [7]?
A: 0.74

Q: And the “Relative Quantification 2^(ΔΔCt) S. bovis” value [8]?
A: 0.58

Q: What about the “Bacteria DNA” value [9] of the same molecule?
A: 9.18 ^a μg/ml

Q: What about the N-NH3 concentration [10] of the same molecule?
A: 323.11 mg/L
